Measured values as given in US9617225B2 (VIROSTATICS SRL, priority 2012, dated 2017).
pIC50: −log10 of the molar value. Like-named read-outs stand apart in the source and are kept apart here.

How the values were obtained:
[1] = target: human CDK9/CyclinT kinase complex (Homo sapiens (Human), UniProt P50750); assay: In Vitro CDK9/CyclinT Assay (IMAP fluorescent polarization); assay type: biochemical
In short: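 Phosphorylation of 400 nM TAMRA-Rbtide (15-mer retinoblastoma-derived peptide) by 5 nM CDK9/CyclinT with 12 μM ATP (=Kmapp) in 20 mM MOPS pH 7, 1 mM DTT, 10 mM MgCl2, 0.01% Tween 20. Reaction run 1 hour at room temperature, stopped with IMAP beads; read by fluorescence polarization.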

[2] = system: laboratory strain of HIV-1; assay: Antiviral Activity Against HIV (AV), p24 in infected activated primary T cells; assay type: cell-based; settings: for antiviral and antiproliferative activity and cytotoxicity profile: summary in words; for pIC50: read-out: AV50, Table 5
Description: Antiviral Activity Against HIV (AV)
Activated primary T cells are infected with a laboratory strain of HIV-1, then cultured and exposed to different concentrations of the test compounds. HIV replication is analysed by measuring the viral protein p24 and expressed as percentage of untreated control. Inhibition of viral replication (AV) is then calculated (AV=100 minus the % p24 compared to control, AV of control=0%). Inhibitory concentration 50% for antiviral activity (AV50) is calculated.

Primary T cells = assay: Cytotoxicity, viability by flow cytometry; assay type: cell-based
Description: Primary T cells are cultured and treated with different concentrations of the test compound. Viability is analysed by measuring through flow cytometry based techniques the percentage of viable cells, compared to untreated control=100%).

human CDK9/CyclinT kinase complex, sequence (P50750 whole entry): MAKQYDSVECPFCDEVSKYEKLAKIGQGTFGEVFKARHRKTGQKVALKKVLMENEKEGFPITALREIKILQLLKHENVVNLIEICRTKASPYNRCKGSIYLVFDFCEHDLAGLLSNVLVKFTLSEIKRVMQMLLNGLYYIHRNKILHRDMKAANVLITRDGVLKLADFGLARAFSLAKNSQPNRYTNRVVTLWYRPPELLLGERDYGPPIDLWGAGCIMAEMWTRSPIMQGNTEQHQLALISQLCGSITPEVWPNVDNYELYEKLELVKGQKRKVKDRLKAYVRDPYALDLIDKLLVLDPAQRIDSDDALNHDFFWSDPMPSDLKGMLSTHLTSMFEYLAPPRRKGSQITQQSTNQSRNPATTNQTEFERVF
human CDK9/CyclinT kinase complex, sequence (O60563 whole entry partner): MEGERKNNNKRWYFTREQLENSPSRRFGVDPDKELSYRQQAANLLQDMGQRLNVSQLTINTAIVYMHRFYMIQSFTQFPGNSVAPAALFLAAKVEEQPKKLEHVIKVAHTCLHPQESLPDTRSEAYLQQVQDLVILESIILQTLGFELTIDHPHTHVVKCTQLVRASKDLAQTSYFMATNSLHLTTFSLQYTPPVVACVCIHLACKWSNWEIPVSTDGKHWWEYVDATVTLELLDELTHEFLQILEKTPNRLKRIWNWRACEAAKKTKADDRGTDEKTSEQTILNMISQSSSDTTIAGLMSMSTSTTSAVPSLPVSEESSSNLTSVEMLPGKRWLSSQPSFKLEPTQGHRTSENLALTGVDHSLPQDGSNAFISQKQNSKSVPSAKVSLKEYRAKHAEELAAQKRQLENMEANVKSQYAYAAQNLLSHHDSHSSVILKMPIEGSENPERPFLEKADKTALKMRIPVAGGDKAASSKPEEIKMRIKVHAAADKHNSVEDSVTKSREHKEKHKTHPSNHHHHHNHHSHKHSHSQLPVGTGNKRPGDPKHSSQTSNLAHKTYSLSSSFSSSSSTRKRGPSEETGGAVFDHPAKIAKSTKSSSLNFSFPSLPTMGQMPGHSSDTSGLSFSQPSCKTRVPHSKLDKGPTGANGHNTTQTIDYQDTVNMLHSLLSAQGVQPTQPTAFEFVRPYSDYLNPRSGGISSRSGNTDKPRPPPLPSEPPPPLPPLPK

Structure (SMILES) | pIC50 [1] | antiviral and antiproliferative activity and cytotoxicity profile [2] | TD50 (Primary T cells) [µM] | pIC50 ([1]; Table 1) | pIC50 ([1]; Table 5) | pIC50 [2] | TD50 (Primary T cells; Table 4, toxic dose 50%, viable cells) [µM]
COc1cc(F)c(Nc2cc(-c3ccccc3OC)ncn2)cc1C(N)=O [Example 143, 4-Fluoro-2-methoxy-5-[6-(2-methoxy-phenyl)-pyrimidin-4-ylamino]-benzamide] | > 6.00 | good antiviral and antiproliferative activity and a good cytotoxicity profile | 15 |  |  |  | 
COc1cc(Nc2cc(-c3ccccc3OC)ncn2)ccc1C(N)=O [Example 136, 2-Methoxy-4-[6-(2-methoxy-phenyl)-pyrimidin-4-ylamino]-benzamide] |  |  | >2 | > 6.00 | > 6.00 | < 5.70 | 
COc1cc(F)c(Nc2cc(-c3ccc(F)cc3OC)ncn2)cc1C(N)=O [Example 146, 4-Fluoro-5-[6-(4-fluoro-2-methoxy-phenyl)-pyrimidin-4-ylamino]-2-methoxy-benzamide] |  | good antiviral and antiproliferative activity and a good cytotoxicity profile | 10 | > 6.00 |  |  | 
COc1cc(Nc2cc(-c3ccccc3OC)ncn2)ccc1N [Example 59, 2-Methoxy-N^4-[6-(2-methoxy-phenyl)-pyrimidin-4-yl]-benzene-1,4-diamine] |  |  | >2 | > 6.00 | > 6.00 | < 5.70 | 
CNS(=O)(=O)Nc1cc(Nc2cc(-c3ccccc3OC)ncn2)ccc1OC [Example 10, (2-Methoxy-5-(6-(2-methoxyphenyl)pyrimidin-4-ylamino)phenyl)(methylsulfamoyl)amine] |  | good antiviral and antiproliferative activity and a good cytotoxicity profile | 3 | > 7.00 |  |  | 
CCOc1ccccc1-c1cc(Nc2ccc(OC)c(N)c2)ncn1 [Example 62, N^1-[6-(2-Ethoxy-phenyl)-pyrimidin-4-yl]-4-methoxy-benzene-1,3-diamine] |  | good antiviral and antiproliferative activity and a good cytotoxicity profile | 4 | > 6.00 |  |  | 
CCOc1ccc(F)cc1-c1cc(Nc2cc(F)c(OC)c(C(N)=O)c2)ncn1 [Example 142, 5-[6-(2-Ethoxy-5-fluoro-phenyl)-pyrimidin-4-ylamino]-3-fluoro-2-methoxy-benzamide] | > 6.00 | good antiviral and antiproliferative activity and a good cytotoxicity profile | >20 |  |  |  | 
COc1ccc(Nc2cc(-c3ccc(F)cc3OC)ncn2)cc1C(N)=O [Example 128, 5-[6-(4-Fluoro-2-methoxy-phenyl)-pyrimidin-4-ylamino]-2-methoxy-benzamide] |  | good antiviral and antiproliferative activity and a good cytotoxicity profile | 5 | > 6.00 |  |  | 
CCOc1ccccc1-c1cc(Nc2ccc(OC)c(C(N)=O)c2)ncn1 [Example 129, 5-[6-(2-Ethoxy-phenyl)-pyrimidin-4-ylamino]-2-methoxy-benzamide] | > 7.00 | good antiviral and antiproliferative activity and a good cytotoxicity profile | 5 |  |  |  | 
CNC(=O)c1ccc(Nc2cc(-c3ccccc3OC)ncn2)cc1OC [Example 134, 2-Methoxy-4-[6-(2-methoxy-phenyl)-pyrimidin-4-ylamino]-N-methyl-benzamide] |  |  | >10 | > 6.00 | > 6.00 | < 5.00 | 
COc1ccccc1-c1cc(Nc2ccc(Cl)c(Cn3cnc4ccccc43)c2)ncn1 [Example 16, N-(3-((1H-benzo[d]imidazol-1-yl)methyl)-4-chlorophenyl)-6-(2-methoxyphenyl)pyrimidin-4-amine] | > 7.00 | good antiviral and antiproliferative activity and a good cytotoxicity profile | 1.5 |  |  |  | 
COc1ccc(Nc2cc(-c3ccccc3OC(C)C)ncn2)cc1N [Example 79, N^1-[6-(2-Isopropoxy-phenyl)-pyrimidin-4-yl]-4-methoxy-benzene-1,3-diamine] |  | good antiviral and antiproliferative activity and a good cytotoxicity profile | 15 | > 6.00 |  |  | 
COc1ccc(Nc2cc(-c3cc(F)c(F)cc3OC)ncn2)cc1N [Example 83, N^1-[6-(4,5-Difluoro-2-methoxy-phenyl)-pyrimidin-4-yl]-4-methoxy-benzene-1,3-diamine] |  | good antiviral and antiproliferative activity and a good cytotoxicity profile | 12 | > 6.00 |  |  | 
COc1ccc(Nc2cc(-c3ccccc3OC)ncn2)cc1NS(=O)(=O)NC1CCCCC1 [Example 13, (2-Methoxy-5-(6-(2-methoxyphenyl)pyrimidin-4-ylamino)phenyl) (cyclohexylsulfamoyl)amine] |  | good antiviral and antiproliferative activity and a good cytotoxicity profile | 5 | > 6.00 |  |  | 
COc1ccc(Nc2cc(-c3ccccc3OC)ncn2)cc1C(N)=O [Example 45, 2-methoxy-5-(6-(2-methoxyphenyl)pyrimidin-4-ylamino)benzamide] | > 7.00 | good antiviral and antiproliferative activity and a good cytotoxicity profile | 15 |  |  |  | 
COc1ccccc1-c1cc(Nc2ccc(O)c([N+](=O)[O-])c2)ncn1 [Example 12, 4-(6-(2-methoxyphenyl)pyrimidin-4-ylamino)-2-nitrophenol] |  |  | >1.5 | > 6.00 | > 6.00 | < 5.82 | 
CCOc1cc(F)ccc1-c1cc(Nc2ccc(OC)c(C(N)=O)c2)ncn1 [Example 130, 5-[6-(2-Ethoxy-4-fluoro-phenyl)-pyrimidin-4-ylamino]-2-methoxy-benzamide] | > 7.00 | good antiviral and antiproliferative activity and a good cytotoxicity profile | 15 |  |  |  | 
CCOc1ccccc1-c1cc(Nc2cc(F)c(OC)c(C(N)=O)c2)ncn1 [Example 141, 5-[6-(2-Ethoxy-phenyl)-pyrimidin-4-ylamino]-3-fluoro-2-methoxy-benzamide] |  | good antiviral and antiproliferative activity and a good cytotoxicity profile | >20 | > 6.00 |  |  | 
COc1ccccc1-c1cc(Nc2ccc(N(C)C)cc2)ncn1 [Example 5, N^1-(6-(2-methoxyphenyl)pyrimidin-4-yl)-N^4,N^4-dimethylbenzene-1,4-diamine] |  | good antiviral and antiproliferative activity and a good cytotoxicity profile |  | > 6.00 |  |  | >10
CCOc1cc(F)ccc1-c1cc(Nc2cc(C(N)=O)c(OC)cc2F)ncn1 [Example 147, 5-[6-(2-Ethoxy-4-fluoro-phenyl)-pyrimidin-4-ylamino]-4-fluoro-2-methoxy-benzamide] | > 6.00 | good antiviral and antiproliferative activity and a good cytotoxicity profile | 15 |  |  |  | 
COc1ccc(Nc2cc(-c3ccccc3OC)ncn2)cc1Cn1cnc2ccccc21 [Example 31, N-(3-((1H-Benzo[d]imidazol-1-yl)methyl)-4-methoxyphenyl)-6-(2-methoxyphenyl)pyrimidin-4-amine] | > 7.00 | good antiviral and antiproliferative activity and a good cytotoxicity profile | 1.8 |  |  |  | 
COc1ccc(Nc2cc(-c3ccc(F)cc3OC)ncn2)cc1N [Example 64] |  | good antiviral and antiproliferative activity and a good cytotoxicity profile | 5 | > 6.00 | > 6.00 |  | 
COc1ccc(Nc2cc(-c3ccccc3OC)ncn2)cc1OC(=O)C(C)(C)C [Example 26, 2-methoxy-5-(6-(2-methoxyphenyl)pyrimidin-4-ylamino)phenyl pivalate] | > 5.00 | good antiviral and antiproliferative activity and a good cytotoxicity profile | 6 |  |  |  | 
